# Reference: ChEMBL document CHEMBL1158508, “Molecular modeling study of 4-phenylpiperazine and 4-phenyl-1,2,3,6-tetrahydropyridine derivatives: a new step towards the design of high-affinity 5-HT1A ligands” (Bioorg Med Chem Lett, 2010)
# Legend:
# [1] = molecular target: 5-hydroxytryptamine receptor 7 (Homo sapiens, UniProt P34969); assay: Binding affinity to 5HT7 receptor
# [2] = molecular target: T1, 5-hydroxytryptamine receptor 1A (Homo sapiens, UniProt P08908); assay: Inhibition of 5HT1A receptor
# T1 sequence (P08908 whole entry): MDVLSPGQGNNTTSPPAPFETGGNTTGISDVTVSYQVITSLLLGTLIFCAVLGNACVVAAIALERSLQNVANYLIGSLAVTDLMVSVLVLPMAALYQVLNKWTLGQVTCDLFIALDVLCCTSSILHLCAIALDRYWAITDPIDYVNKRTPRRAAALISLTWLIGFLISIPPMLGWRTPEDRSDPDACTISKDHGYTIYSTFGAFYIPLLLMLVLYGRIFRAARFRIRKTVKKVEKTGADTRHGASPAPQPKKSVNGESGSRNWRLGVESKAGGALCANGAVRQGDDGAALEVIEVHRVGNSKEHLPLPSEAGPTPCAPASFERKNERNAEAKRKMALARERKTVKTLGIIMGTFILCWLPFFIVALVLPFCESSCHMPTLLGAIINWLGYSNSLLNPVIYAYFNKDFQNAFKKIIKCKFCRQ
# Sequence of 5-hydroxytryptamine receptor 7 (P34969 whole entry): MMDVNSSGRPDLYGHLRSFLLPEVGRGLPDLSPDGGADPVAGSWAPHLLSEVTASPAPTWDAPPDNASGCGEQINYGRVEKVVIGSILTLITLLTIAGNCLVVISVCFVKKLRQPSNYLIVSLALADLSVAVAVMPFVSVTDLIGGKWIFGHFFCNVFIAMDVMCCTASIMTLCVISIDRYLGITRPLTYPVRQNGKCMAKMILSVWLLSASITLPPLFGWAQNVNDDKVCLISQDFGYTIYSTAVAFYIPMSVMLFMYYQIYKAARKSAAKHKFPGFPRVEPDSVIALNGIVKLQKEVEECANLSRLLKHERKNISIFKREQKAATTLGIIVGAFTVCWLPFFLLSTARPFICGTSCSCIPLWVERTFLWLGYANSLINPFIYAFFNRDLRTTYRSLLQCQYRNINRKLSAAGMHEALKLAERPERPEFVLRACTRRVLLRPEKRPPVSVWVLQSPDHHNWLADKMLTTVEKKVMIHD
Compound,Ki [1] [nM],IC50 [2] [nM]
O=C1Nc2cccc3c2C1(CCCCN1CC=C(c2ccccc2)CC1)CCC3 (racemic),3.31,
O=C1Nc2cccc3c2C1(CCCCN1CCN(c2ccccc2)CC1)CCC3 (racemic),2.14,
Oc1ccc2[nH]cc(CCCCN3CC=C(c4ccccc4)CC3)c2c1 [ROXINDOLE],,0.8
COc1ccc2[nH]cc(CCCCN3CC=C(c4ccccc4)CC3)c2c1,,20
